Data published in patent US20140357579A1, “SYNTHETIC PEPTIDE AMIDES AND DIMERS THEREOF” (priority 2006, published 2014).

Experiments:
[1] = target: CYP2C19 (Homo sapiens, UniProt P33261); experiment: Cytochrome P450 CYP2C19 inhibition, human liver microsomes (Cerep); conditions: 10 uM test compound, percent remaining CYP activity
[2] = target: T1, human kappa opioid receptor (hKOR) (Homo sapiens, UniProt P41145); experiment: NFAT-luciferase reporter assay in HEK-293 cells transfected with human kappa opioid receptor and chimeric G-protein; type: cell-based
T1 construct: expressed in transfected cells; host or cells: HEK-293 cells (ATCC), transient transfection with pcDNA3-hOPRK1

[3] = tested on: mice; experiment: Acetic acid-induced writhing assay in mice; type: in vivo; conditions: IRC mice, delivered subcutaneously
[4] = tested on: mice; experiment: Inhibition of locomotion in mice (sedation); conditions: delivered subcutaneously
[5] = target: CYP2D6 (Homo sapiens, UniProt P10635); experiment: Cytochrome P450 CYP2D6 inhibition, human liver microsomes (Cerep); conditions: 10 uM test compound, percent remaining CYP activity
[6] = tested on: CYP1A; experiment: Cytochrome P450 CYP1A inhibition, human liver microsomes (Cerep); conditions: 10 uM test compound, percent remaining CYP activity
[7] = target: CYP3A4 (Homo sapiens, UniProt P08684); experiment: Recombinant human cytochrome P450 CYP3A4 inhibition (Cerep); conditions: 10 uM test compound, percent remaining CYP activity
[8] = target: T2, mouse kappa opioid receptor (mKOR) (Mus musculus, UniProt P33534); experiment: Inhibition of forskolin-stimulated cAMP production in R1.G1 cells (TR-FRET cAMP immunoassay); type: cell-based; conditions: R1.G1 cells
T2 construct: a mouse thymoma cell line that expresses only the kappa-opioid receptor and no other opioid receptor subtype; host or cells: R1.G1 mouse thymoma cells

[9] = target: CYP2C9 (Homo sapiens, UniProt P11712); experiment: Cytochrome P450 CYP2C9 inhibition, human liver microsomes (Cerep); conditions: 10 uM test compound, percent remaining CYP activity
Sequence of CYP2C9 (P11712 whole entry): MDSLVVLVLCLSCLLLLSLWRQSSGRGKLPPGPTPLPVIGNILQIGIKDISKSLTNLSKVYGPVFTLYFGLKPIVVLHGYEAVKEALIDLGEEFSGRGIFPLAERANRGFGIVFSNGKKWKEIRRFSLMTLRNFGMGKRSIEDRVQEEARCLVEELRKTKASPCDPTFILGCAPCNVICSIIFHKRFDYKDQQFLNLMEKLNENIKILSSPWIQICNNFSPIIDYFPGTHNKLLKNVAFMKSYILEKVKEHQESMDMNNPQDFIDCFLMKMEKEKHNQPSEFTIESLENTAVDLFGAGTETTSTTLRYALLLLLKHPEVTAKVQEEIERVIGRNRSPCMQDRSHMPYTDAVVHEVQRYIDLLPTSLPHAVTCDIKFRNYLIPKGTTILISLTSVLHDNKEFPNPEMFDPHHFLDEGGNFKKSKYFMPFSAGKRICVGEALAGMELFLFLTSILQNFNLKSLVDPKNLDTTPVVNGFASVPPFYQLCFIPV

Sequence of CYP3A4 (P08684 whole entry): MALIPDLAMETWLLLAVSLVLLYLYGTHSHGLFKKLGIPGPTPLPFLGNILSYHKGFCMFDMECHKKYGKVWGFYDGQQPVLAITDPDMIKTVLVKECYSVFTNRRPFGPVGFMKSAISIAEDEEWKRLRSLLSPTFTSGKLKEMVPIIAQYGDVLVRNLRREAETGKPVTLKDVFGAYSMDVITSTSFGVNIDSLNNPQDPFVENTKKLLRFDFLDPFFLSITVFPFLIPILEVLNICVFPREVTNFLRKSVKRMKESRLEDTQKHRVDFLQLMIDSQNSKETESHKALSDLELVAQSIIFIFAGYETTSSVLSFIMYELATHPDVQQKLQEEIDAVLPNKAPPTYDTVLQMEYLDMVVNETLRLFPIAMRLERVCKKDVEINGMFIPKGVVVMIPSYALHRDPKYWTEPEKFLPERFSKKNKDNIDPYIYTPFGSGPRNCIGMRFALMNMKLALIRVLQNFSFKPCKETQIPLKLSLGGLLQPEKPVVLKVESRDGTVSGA
Sequence of CYP2D6 (P10635 whole entry): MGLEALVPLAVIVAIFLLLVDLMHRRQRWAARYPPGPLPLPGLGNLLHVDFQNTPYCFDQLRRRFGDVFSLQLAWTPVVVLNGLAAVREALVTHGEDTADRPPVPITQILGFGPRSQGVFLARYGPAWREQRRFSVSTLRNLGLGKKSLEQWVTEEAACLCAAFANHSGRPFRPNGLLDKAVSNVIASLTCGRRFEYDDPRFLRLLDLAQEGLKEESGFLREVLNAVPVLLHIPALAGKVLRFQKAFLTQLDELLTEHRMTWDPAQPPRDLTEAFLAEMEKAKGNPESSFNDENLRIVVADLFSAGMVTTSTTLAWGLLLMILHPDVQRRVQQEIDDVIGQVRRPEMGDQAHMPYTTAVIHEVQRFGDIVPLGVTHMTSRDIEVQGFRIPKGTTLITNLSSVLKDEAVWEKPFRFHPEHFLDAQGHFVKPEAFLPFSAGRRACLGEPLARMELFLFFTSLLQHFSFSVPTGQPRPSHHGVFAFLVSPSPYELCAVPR
Sequence of CYP2C19 (P33261 whole entry): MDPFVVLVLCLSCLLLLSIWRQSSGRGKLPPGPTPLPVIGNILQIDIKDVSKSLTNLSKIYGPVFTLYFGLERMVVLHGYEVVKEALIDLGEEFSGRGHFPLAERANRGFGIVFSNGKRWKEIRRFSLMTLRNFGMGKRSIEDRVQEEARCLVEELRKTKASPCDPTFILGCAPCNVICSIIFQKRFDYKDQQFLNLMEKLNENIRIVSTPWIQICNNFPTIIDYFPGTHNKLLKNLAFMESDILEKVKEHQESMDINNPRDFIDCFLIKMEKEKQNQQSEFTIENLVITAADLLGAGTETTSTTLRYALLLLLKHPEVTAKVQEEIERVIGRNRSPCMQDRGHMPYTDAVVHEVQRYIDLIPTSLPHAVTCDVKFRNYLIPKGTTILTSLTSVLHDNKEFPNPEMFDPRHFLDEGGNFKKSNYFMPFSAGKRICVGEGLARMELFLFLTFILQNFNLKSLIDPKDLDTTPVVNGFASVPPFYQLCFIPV
T1 sequence (P41145 whole entry): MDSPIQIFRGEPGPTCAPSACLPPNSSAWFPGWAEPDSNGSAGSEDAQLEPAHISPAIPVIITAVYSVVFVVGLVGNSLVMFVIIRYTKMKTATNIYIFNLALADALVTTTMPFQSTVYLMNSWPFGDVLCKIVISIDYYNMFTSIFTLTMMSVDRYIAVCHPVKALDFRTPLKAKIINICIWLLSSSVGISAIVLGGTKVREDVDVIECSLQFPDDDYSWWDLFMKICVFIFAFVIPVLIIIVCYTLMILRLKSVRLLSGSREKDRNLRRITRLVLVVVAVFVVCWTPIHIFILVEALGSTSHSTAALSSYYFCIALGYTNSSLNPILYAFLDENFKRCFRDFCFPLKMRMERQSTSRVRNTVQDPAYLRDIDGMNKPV
T2 sequence (P33534 whole entry): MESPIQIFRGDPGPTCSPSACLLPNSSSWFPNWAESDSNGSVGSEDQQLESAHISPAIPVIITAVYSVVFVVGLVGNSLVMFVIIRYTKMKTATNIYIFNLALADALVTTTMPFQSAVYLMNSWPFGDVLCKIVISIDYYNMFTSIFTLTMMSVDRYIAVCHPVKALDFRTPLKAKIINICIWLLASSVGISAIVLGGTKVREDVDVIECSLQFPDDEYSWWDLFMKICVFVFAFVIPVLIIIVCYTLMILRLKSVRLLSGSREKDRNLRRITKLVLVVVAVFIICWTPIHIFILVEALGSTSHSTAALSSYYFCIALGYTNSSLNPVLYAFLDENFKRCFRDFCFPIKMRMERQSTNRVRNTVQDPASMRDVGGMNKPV

In the case of `CC(C)C[C@@H](NC(=O)[C@@H](Cc1ccccc1)NC(=O)[C@H](N)Cc1ccccc1)C(=O)N[C@H](CCCN)C(=O)N1CCCN(C2=NCCN2)CC1` [Compound 17, D-Phe-D-Phe-D-Leu-D-Orn-[4-(4,5-dihydro-1H-imidazol-2-yl)homopiperazine amide]], the “Percent Activity of CYP2C19” value ([1]; Expt 1) is reported as 94.1%, the “Percent Activity of CYP2C19” value ([1]; Expt 2) is reported as 97.8% and the “hKOR Efficacy(%)” value ([2]; percent maximal activation compared to full induction by known kappa agonists) is reported as 90%. The EC50 ([2]; transfected HEK-293 cells, luciferase reporter, read-out: hKOR EC50) was 0.12 nM, the “ED50 in the acetic acid-induced writhing assay” value [3] was 0.074 mg/kg and the “ED50 in the inhibition of locomotion assay” value [4] was 3.172 mg/kg. For the same molecule, the “Percent Activity of CYP2D6” value ([5]; Expt 1) was 98.4%, the “Percent Activity of CYP2D6” value ([5]; Expt 2) was 98.2% and the “Percent Activity of CYP1A” value ([6]; Expt 1) was 97.1%. For the same molecule, the “Percent Activity of CYP1A” value ([6]; Expt 2) was 95.8%, the “Percent Activity of CYP3A4” value ([7]; Expt 1) was 94.7% and the “Percent Activity of CYP3A4” value ([7]; Expt 2) was 95.9%. For the same molecule, the “mKOR Efficacy(%)” value [8] was 99%, the “Percent Activity of CYP2C9” value ([9]; Expt 1) was 99.2% and the “Percent Activity of CYP2C9” value ([9]; Expt 2) was 98.2%.
